PMC10888717, “Identification of Novel Non-Nucleoside Inhibitors of Zika Virus NS5 Protein Targeting MTase Activity” (International Journal of Molecular Sciences, 2024)
Blank lines part the entries; values can stand above or below the compound they belong to.

Columns and labels:
ZIKV NS5 MTase = target: T1, ZIKV NS5 MTase (Zika virus, UniProt A0A024B7W1); test: ZIKV NS5 MTase radioactive filter-binding assay (2′-O-MTase activity); type: biochemical; conditions: at least two experiments; for IC50: read-out: IC50 (half-maximal inhibitory enzymatic concentration)
T1 construct: KJ776791.2, aa 4–278; His6 (N); made in house; host or cells: Escherichia coli T7 Express Iq
T1 sequence (A0A024B7W1 2524-2798): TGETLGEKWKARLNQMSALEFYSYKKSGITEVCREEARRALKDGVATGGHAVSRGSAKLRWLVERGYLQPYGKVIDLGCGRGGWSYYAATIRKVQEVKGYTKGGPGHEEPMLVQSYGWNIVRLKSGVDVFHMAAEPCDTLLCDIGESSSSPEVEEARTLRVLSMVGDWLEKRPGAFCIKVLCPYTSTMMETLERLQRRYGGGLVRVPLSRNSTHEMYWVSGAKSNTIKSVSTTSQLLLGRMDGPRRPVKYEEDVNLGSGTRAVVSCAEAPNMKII
Experimental: Selected compounds were evaluated in enzymatic inhibition assays against both ZIKV and DENV 2′-O-MTase activity (For details, see Figure S3 in Supplementary Materials). The screening of compounds at a concentration of 50 µM highlighted a higher inhibitory activity against ZIKV MTase. We thus focused our efforts on ZIKV and determined the IC50 values against ZIKV MTase.
Expression and purification of ZIKV NS5 MTase: The coding sequence of the ZIKV NS5 MTase domain (strain H/PF/2013, GenBank accession no. KJ776791.2, aa 4–278) was synthesized by Genscript and cloned into a pQE30 vector (Qiagen, Hilden, Germany) with an N-terminal His6 tag. The protein was expressed and purified following the procedures described in Coutard et al..
Briefly, after expression in Escherichia coli T7 Express Iq (New England BioLabs) in Terrific Broth at 17 °C overnight, bacterial pellets were resuspended in lysis buffer (50 mM Tris-HCl [pH 8], 300 mM NaCl, 5% glycerol, 0.1% Triton, 10 μg/mL DNase I, 2 tablets of EDTA-free antiprotease cocktail [Roche] and 0.25 mg/mL lysozyme). Following cell lysis and clarification, the protein was purified by affinity on immobilized metal affinity chromatography (IMAC, His prep column [GE Healthcare]), followed by size exclusion chromatography (Superdex S75 HR 16/20 column [GE Healthcare]). The NS5-MTase was concentrated and stored at −20 °C after adding glycerol to a final concentration of 40%.
Filter-binding assay: The transfer of tritiated methyl from ^[3H]SAM onto RNA substrate was monitored by a filter-binding assay (FBA), performed according to the method described previously. FBA was carried out in a reaction mixture [40 mM Tris-HCl (pH 8.0), 1 mM DTT, 2 μM SAM, and 0.1 μM 3H-SAM (Perkin Elmer, Shelton, CT, USA)] in the presence of 0.7 μM synthetic ^7mGpppAC4 and ZIKV NS5 MTase (500 nM). The enzyme was first mixed with an increasing concentration of inhibitors, previously suspended in dimethyl sulfoxide (DMSO), before the addition of RNA substrate and SAM, and then incubated at 30 °C. The final DMSO concentration in reactions was 5%. Reaction mixtures were stopped after 30 min incubation by their 10-fold dilution in ice-cold water. Samples were transferred to diethylaminoethyl (DEAE) filtermat (Perkin Elmer, Shelton, CT, USA) using a Filtermat Harvester (Packard Instruments, Meriden, CT, USA). The RNA-retaining mats were washed twice with 10 mM ammonium formate pH 8.0, twice with water, and once with ethanol before drying. They were soaked with scintillation fluid (Perkin Elmer, Shelton, CT, USA), and 3H-methyl transfer to the RNA substrates was determined using a Wallac MicroBeta TriLux Liquid Scintillation Counter (Perkin Elmer, Shelton, CT, USA). For IC50 measurements, values were normalized and fitted with Prism (GraphPad software version 10.1.1) using the following equation: Y = 100/(1 + ((X/IC50) ^ Hillslope)).

[1] = Metabolic stability in human liver microsomes; type: in vitro ADME; conditions: 1 h, 37 °C, three experiments
Experimental: The metabolic stability was investigated by incubating selected compounds with human liver microsomes (HLMs) for 1 h at 37 °C. The percentage of non-metabolized compounds and metabolites was analyzed by HPLC-UV-MS. […] HPLC analysis confirmed the presence of the oxidated metabolites in small percentages.
(§1) For the ADME property determination, an Agilent 1260 Infinity HPLC-DAD interfaced with an Agilent MSD 6130 (Agilent Technologies, Palo Alto, CA, USA) was used. Chromatographic conditions were optimized using a Phenomenex Kinetex C18-100 Å column (150 × 4.6 mm) with 5 µm particle size and gradient elution with a binary solution (eluent A: H2O; eluent B: ACN; both eluents were acidified with formic acid 0.1% v/v) at room temperature. The LC analyses started with 5% of B (from t = 0 to t = 1 min), then B was increased to 95% (from t = 1 to t = 10 min) and then kept at 95% (from t = 10 to t = 19 min) and finally returned to initial conditions in 1.0 min. The flow rate was 0.6 mL/min and the injection volume was 10 µL.
The test was performed as previously reported with minor modifications. Each compound was dissolved in DMSO and phosphate buffer (0.025 M, pH 7.4), and human liver microsomes (0.2 mg/mL) and a NADPH-regenerating system in MgCl2 48 mM were added to a final volume of 500 µL. This solution was incubated for 1 h at 37 °C and then the reaction was stopped and quenched using 1 mL of ACN. The reaction mixtures were then centrifuged (4000 rpm for 10 min) and the supernatant was taken, dried under nitrogen flow, and then resuspended in 100 µL of methanol. The parent drug and metabolites were subsequently determined using the chromatographic conditions described above. The percentage of non-metabolized compounds was calculated by comparison with reference solutions. The determination of metabolic stability for each compound was performed in three independent experiments.

[2] = Cytotoxicity assay (MTT) on Vero E6 cells; type: cell-based; conditions: African green monkey; VERO E6 cells, MTT, 3 days; read-out: CC50 ± SD (half-maximal cytotoxic concentration)
Experimental: Compounds characterized by the best anti-enzymatic activity were tested against ZIKV in cellular assays. VERO E6 cells were infected with ZIKV at a multiplicity of infection (M.O.I.) of 0.1, and their activities were evaluated by a plaque reduction assay three days post-infection. Ribavirin was used as a reference compound. As reported in Table 2, compound 1, identified in the first screening, was unable to inhibit viral replication up to a 100 μM concentration. […] The cytotoxicity of the series was determined on the same cell line. […] Their selectivity indexes were calculated as the ratio between CC50 and IC50 values; the results highlight their promising safety profile.
Monolayers of 2.5 × 10^4 Vero E6 cells per well were grown in flat-bottom 96-well culture plates and allowed to adhere overnight. Then, when the cell layers were confluent, the medium was removed, the wells were washed twice with PBS, treated with 100 µL of DMEM with 10 µL DMSO alone (cell positive control) or with various concentrations of anti-NS5 inhibitory compounds under study (compound final concentrations of 100, 10, 1, 0.1, and 0.01 μM), and incubated for 3 days at 37 °C in a CO2. After treatment, an MTT (3-(4,5-dimethylthiazol-2-yl)-2,5-diphenyltetrazolium bromide) kit (Roche, Milan, Italy) was used according to the supplier’s instructions, and the absorbance of each well was determined using a microplate spectrophotometer at a wavelength of 570 nm. Cytotoxicity was calculated by dividing the average optical density of treated samples by the average of DMSO-treated samples (cell positive control).

[3] = Stability test in human plasma; type: in vitro ADME; conditions: pH 7.4, 37 °C, up to 24 h, read-out: Plasma Stab. (T1/2, h ± SD) (converted)
Experimental: Finally, compounds were incubated in human plasma at 37 °C for 24 h. […] Taken together, stability studies confirmed that the series is suitable for further development.
as §1
A stock solution of the target compound in DMSO (2 mM) was incubated in a test tube with pooled human plasma (55.7 mg protein/mL) and HEPES buffer (25 mM, 140 mM NaCl pH 7.4) up to a final volume of 1.0 mL. The mixture was incubated at 37 °C, and at set time points (0.0, 0.5, 1, 4, 8, 24 h), samples of 50 µL were taken, mixed with 400 µL of ACN to stop the reaction of plasmatic esterases, and centrifuged at 5000 rpm for 15 min. The supernatant was removed and analyzed using the LC-UV/MS method previously described. The half-life (t½) was calculated according to the following equation: t½=ln 2/k where k represents the substrate elimination constant. For each compound, the determination was performed in three independent experiments.

ZIKV [4] = test: ZIKV inhibitory viral plaque reduction assay in Vero E6 cells; type: cell-based, Zika virus; conditions: for SI (Selectivity Index, ratio between CC50 and IC50): VERO E6 cells; for IC50: Zika virus, Vero C1008, read-out: IC50 ± SD (half-maximal inhibitory concentration, ZIKV plaque reduction)
ZIKV [5] = conditions: read-out: in vitro EC50 against ZIKV; cited from earlier work

SMILES: CN1C(=O)c2ccc(NC(=O)c3cc4cc([N+](=O)[O-])ccc4o3)cc2C1=O [Compound 8]
- HLM Stab.% ± SD (percentage of non-metabolized compound) [1]: 96.93 ± 0.57%
- IC50 (ZIKV NS5 MTase): 22.6 µM
- CC50 at 3 days [2]: > 100 µM
- half-life [3]: 7.31 ± 0.17 h
- SI (Selectivity Index, ratio between CC50 and IC50) (ZIKV [4]): >52.63
- IC50 (ZIKV [4]): 1.9 ± 0.3 µM

SMILES: CNC(=O)c1cccc(NC(=O)c2cc3ccccc3s2)c1 [Compound 12]
- IC50 (half-maximal inhibitory enzymatic concentration) (ZIKV NS5 MTase): completely abolished the activity
- IC50 (ZIKV NS5 MTase): > 100 µM

SMILES: CN1C(=O)c2ccc(NC(=O)c3cc4ccccc4o3)cc2C1=O [Compound 9]
- IC50 (half-maximal inhibitory enzymatic concentration) (ZIKV NS5 MTase): completely inactive
- IC50 (ZIKV NS5 MTase): > 100 µM

SMILES: CN1C(=O)c2ccc(NC(=O)c3sc4ccccc4c3Cl)cc2C1=O [Compound 16]
- IC50 (ZIKV NS5 MTase): 13.1 µM
- CC50 at 3 days [2]: > 100 µM
- SI (Selectivity Index, ratio between CC50 and IC50) (ZIKV [4]): >38.46
- IC50 (ZIKV [4]): 2.6 ± 0.2 µM

SMILES: CCN(CC)CCCC(C)Nc1ccnc2cc(Cl)ccc12 (centres unmarked) [chloroquine]
- EC50 (ZIKV [5]): ~5 µM

Further compounds by falling IC50 (ZIKV NS5 MTase), results first:

- IC50 (ZIKV NS5 MTase): 100 µM
SMILES: CN1C(=O)c2ccc(NC(=O)c3cc4c(Cl)cccc4s3)cc2C1=O [Compound 18]

- IC50 (ZIKV NS5 MTase): 57 µM
SMILES: O=C(Nc1ccccc1)c1cc2cc([N+](=O)[O-])ccc2s1 [Compound 7]

- IC50 (ZIKV NS5 MTase): 50 µM
SMILES: O=C(O)c1ccc(NC(=O)c2cc3cc([N+](=O)[O-])ccc3s2)cc1 [Compound 6]

- IC50 (ZIKV NS5 MTase): 46 µM
SMILES: O=C(Nc1ccc2c(c1)C(=O)NC2)c1cc2ccccc2s1 [Compound 13]

- IC50 (ZIKV NS5 MTase): 40 µM
SMILES: Cc1ccc2sc(C(=O)Nc3ccc4c(c3)C(=O)N(C)C4=O)cc2c1 [Compound 19]
